Patent publication US11874281B2, “Assays for detecting modified compounds” (Enzo Life Sciences, Inc., priority 2010, dated 2024)

Molecular target: human sphingosine kinase 1 (hSK1) (Homo sapiens, UniProt Q9NYA1)
Test: sphingosine kinase 1 assay with fluoresceinated sphingosine, barium acetate/ethanol precipitation of fluoresceinated S1P, fluorescence readout
Assay type: biochemical
Conditions: 100 μM inhibitor; 4 μM sphingosine fluoresceine; 500 μM ATP; 1 h at 37° C.
Excerpt: Sphingosine is phosphorylated at the non-polar end by the enzymes sphingosine kinase 1 and sphingosine kinase 2, to form sphingosine-1-phosphate (S1P). S1P is an important signaling molecule, and serves in particular as a major regulator of vascular and immune systems. See, e.g., Lloyd-Evans et al., Nat. Med. 14:1247-1255 (2008); Ryu et al., EMBO J. 25:5840-5851 (2006); Maceyka et al., J. Lipid Res. 50:S272-S276 (2009); Peterson et al., Proc. Natl. Acad. Sci. USA 105:20764-20769; and U.S. Pat. No. 6,730,480. Thus, the detection of S1P and the sphingosine kinases is important for the understanding of the various systems that S1P influences. Current methods for separating sphingosine from S1P generally use chromatographic, electrophoretic or spectrometric methods. See, e.g., Bandhuvula et al., Biochem. Biophys. Res. Commun. 380:366-370 (2009); Lee et al., Anal. Chem. 80:1620-1627 (2008); Jin et al., Arch. Pharm. […]
The S1P formed by the enzyme was then precipitated in the reaction mix by the addition of 5 μl of 1 M barium acetate+300 μL of 100% ethanol, followed by 30 min incubation on ice. […] The eluted fluoresceinated S1P was quantified by measuring intensity of fluorescence. Preliminary studies established that the two wash steps were sufficient to remove essentially the entire quantity of unprecipitated sphingosine fluorescein. […]

Sequence of human sphingosine kinase 1 (hSK1) (Q9NYA1 whole entry): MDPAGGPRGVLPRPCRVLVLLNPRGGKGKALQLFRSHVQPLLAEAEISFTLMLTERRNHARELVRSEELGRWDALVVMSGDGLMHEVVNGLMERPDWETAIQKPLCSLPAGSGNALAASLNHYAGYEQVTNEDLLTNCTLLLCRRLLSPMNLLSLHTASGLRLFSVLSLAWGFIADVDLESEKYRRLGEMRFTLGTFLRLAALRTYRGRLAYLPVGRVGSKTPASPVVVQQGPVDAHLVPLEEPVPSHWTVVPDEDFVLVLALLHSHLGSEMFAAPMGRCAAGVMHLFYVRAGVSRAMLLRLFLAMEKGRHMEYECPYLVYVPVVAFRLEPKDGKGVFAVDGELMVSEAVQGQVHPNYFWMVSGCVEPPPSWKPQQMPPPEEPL

Row | Structure (SMILES) | inhibition of hSK1 (precipitation of the fluoresceinated product, FIG. 6)
1 | CCCCCCCCCCCCC/C=C/[C@@H](O)[C@@H](N)CO [D/L sphingosine] | caused less precipitation of the fluoresceinated product
2 | CCCCCCCCCCCCC/C=C/[C@@H](O)[C@H](CO)N(C)C [DMS, dimethylsphingosine] | caused less precipitation of the fluoresceinated product
